Residues, ends and D or L forms follow the SMILES beside them.
How the values were obtained:
[1] = system: B16 melanoma cells; test: Boyden chamber invasion assay, B16 cells; type: cell-based; settings: B16 mouse melanoma cells
Description: FIG. 13A is a series of photomicrographs of B16 melanoma cells treated with IVMT-Rx-3 at varying concentrations, as well as a histogram showing quantification of the average percentage (of control) of invaded cells. Invasion was assayed using a Boyden chamber. *: Statistical significance (p<0.05).
(§1) Invasive phenotype was measured using a Boyden Chamber Assay as described previously (6,8,18). Briefly, 25,000 cells were plated on the upper chamber of the trans well in FBS free media and allowed to invade the Matrigel layer towards the bottom chamber supplemented with complete media. Twenty-four hr. after plating, the invaded cells were fixed and counted under a bright field microscope.

[2] = biological target: T1, MDA-9/Syntenin: Src (Homo sapiens, UniProt O00560); test: Co-immunoprecipitation MDA-9/Syntenin: Src; type: cell-based; settings: C8161.9 and A-375 cells; co-IP after 12 hours treatment, fibronectin-coated plates
T1 construct: co-immunoprecipitation with anti-MDA-9
T1 sequence (O00560 whole entry): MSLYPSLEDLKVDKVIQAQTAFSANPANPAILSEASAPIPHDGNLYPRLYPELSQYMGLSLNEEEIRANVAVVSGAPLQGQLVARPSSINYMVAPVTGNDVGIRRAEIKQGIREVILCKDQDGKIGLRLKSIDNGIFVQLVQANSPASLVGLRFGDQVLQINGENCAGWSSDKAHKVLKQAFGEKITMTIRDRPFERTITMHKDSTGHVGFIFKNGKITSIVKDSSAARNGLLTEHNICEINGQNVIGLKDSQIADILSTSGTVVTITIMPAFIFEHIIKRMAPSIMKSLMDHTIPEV
Description: FIG. 4A is an immunoblot of C8161.9 and A-375 cells treated for 12 hours with either DMSO vehicle or IVMT-Rx-3 at different doses (as indicated) and re-plated onto fibronectin-coated plates. After 30 minutes, cell lysates were immunoprecipitated and immunoblotted with the indicated antibodies.
Co-immunoprecipitation studies were performed as described previously using immunoprecipitation kits with Dynabeads® Protein G (Life Technologies) (7,8). Briefly, 30 min. after plating cells on fibronectin-coated plates, protein lysates were prepared. 200 μg of total cellular protein was incubated with anti-IgG or anti-MDA-9 overnight to facilitate binding. After subsequent washing and elution from beads, Western blotting was performed with specific antibodies.

[3] = Toxicity in pre-clinical animal models; settings: in vivo
[4] = system: MMP-2 and MMP-9; test: MMP-2 and MMP-9 mRNA by qPCR, B16 cells; type: cell-based; settings: B16 mouse melanoma cells
Description: FIG. 13C is a series of histograms showing the MMP-2 and MMP-9 mRNA fold change in the cells treated as described in FIG. 13A, as determined by qPCR. *: Statistical significance (p<0.05).
(§2) Total cellular RNA was extracted using an RNAeasy kit (Qiagen, Germany) as described previously (8,9). All Taqman probes used in this study were obtained from Applied Biosystems (Applied Biosystems, Foster City, CA). Real time PCR was performed using an ABI ViiA7 fast real-time PCR system (Applied Biosystems, Foster City, CA).

[5] = system: IL-6, IL-10, IL-16; test: IL-6, IL-10, IL-16 mRNA by semiquantitative RT-PCR, murine melanoma cells; type: cell-based, mouse; settings: murine melanoma cells (B16)
Description: FIG. 14 is a series of histograms showing the IL-6, IL-10, and IL-16 mRNA fold change in RNA lysates prepared from A-375, C8161.9, and B16 cells treated with IVMT-Rx-3 at varying concentrations as indicated.
as §2

[6] = system: MMP-2 and MMP-9; test: MMP-2 and MMP-9 mRNA by real time qPCR, human melanoma cells; type: cell-based; settings: FIG. 5A
From the text: FIG. 5A is a series of histograms showing the MMP-2 and MMP-9 mRNA transcriptional activity in established human melanoma cells (A-375, C8161.9, and MeWo cells) and patient-derived early passage human melanoma cells (TPF-19-219, TPF-19-235, and TPF-16-238 cells) treated with IVMT-Rx-3 at varying doses, as determined by qPCR. *: Statistical significance (p<0.05).
as §2

[7] = system: T cells; test: T cell infiltration into the tumor environment; type: in vivo; settings: targeting MDA-9/Syntenin
[8] = system: A-375 and C8161.9 cells; test: Boyden chamber invasion assay, comparison with PDZ1i; type: cell-based, human; settings: 25 μM each
Description: (§3) FIG. 11A is a series of photomicrographs taken at 10× magnification showing invasion assays of A-375 cells treated with DMSO vehicle, 25 μM PDZ1i, or 25 μM IVMT-Rx-3, as well as histograms showing quantification of the average percent invasion of three independent experiments±standard deviation. *: Statistical significance (p<0.05).
as §3, with “11B” for “11A”, “C8161.9” for “A-375”, “IVMT-Rx-3 in C8161.9 melanoma cells,” for “IVMT-Rx-3,”
as §1

[9] = biological target: PDZ tandem protein Harmonin (Homo sapiens, UniProt Q9Y6N9); test: Binding to other PDZ domains: Harmonin; settings: 36% identity to PDZ2 and 31% to PDZ1 of MDA-9/Syntenin
Chain of PDZ tandem protein Harmonin (Q9Y6N9 whole entry, the tested form may be a part): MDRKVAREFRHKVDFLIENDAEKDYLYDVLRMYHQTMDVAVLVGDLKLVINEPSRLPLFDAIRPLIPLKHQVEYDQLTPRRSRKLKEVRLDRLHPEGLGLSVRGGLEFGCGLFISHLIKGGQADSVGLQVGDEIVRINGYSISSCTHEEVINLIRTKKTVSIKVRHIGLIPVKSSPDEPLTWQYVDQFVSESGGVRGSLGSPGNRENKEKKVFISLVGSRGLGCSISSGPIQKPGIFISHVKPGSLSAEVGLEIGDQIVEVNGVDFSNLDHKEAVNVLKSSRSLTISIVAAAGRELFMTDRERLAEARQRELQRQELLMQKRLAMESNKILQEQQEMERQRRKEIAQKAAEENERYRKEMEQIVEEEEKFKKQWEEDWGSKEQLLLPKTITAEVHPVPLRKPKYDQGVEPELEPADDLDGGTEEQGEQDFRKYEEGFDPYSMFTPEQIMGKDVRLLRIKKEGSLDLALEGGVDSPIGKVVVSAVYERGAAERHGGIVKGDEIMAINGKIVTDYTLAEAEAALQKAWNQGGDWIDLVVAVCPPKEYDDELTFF

[10] = system: MDA-9/Syntenin; test: MDA-9/Syntenin protein expression; type: cell-based
[11] = system: IGFBP-2; test: IGFBP-2 ELISA in conditioned media; type: cell-based, human; settings: 10, 25 or 50 μM, 24 hr
Description: FIG. 5C is a series of histograms showing the amount of IGFBP-2 secreted from A-375, C8161.9, TPF-19-219, TPF-19-235, and TPF-16-238 cells treated with varying concentrations of IVMT-Rx-3, as measured by ELISA.
IGFBP-2 levels in conditioned media were determined using an IGFBP-2 ELISA kit (R&D systems, USA) according to the manufacturer's instructions (9). Each sample was repeated three times, and represented graphically with GraphPad Prism software.
Insulin Growth Factor Binding Protein-2 (IGFBP-2) has been found in higher levels in the serum of individuals with diverse types of pathological conditions and is very germane in the context of angiogenesis, tumor promotion and chemoresistance (33). Since Src activation is critical for IGFBP-2 induced angiogenesis, a potential suppressive function of IVMT-Rx-3 on IGFBP-2 expression levels was investigated (9). Melanoma cells were treated with different doses (10, 25 or 50 μM) of IVMT-Rx-3 for 24 hr. and levels of IGFBP-2 in the media were determined using ELISA (FIG. 5C). […] Blocking MDA-9/Syntenin expression inhibits the secretion of cytokines/growth factors in breast cancer resulting in the conversion of an immunosuppressive to immunostimulatory microenvironment (23). Accordingly, the level of specific melanoma metastasis-associated cytokines, e.g., IL-6, IL-10, IL-16, following treatment with IVMT-Rx-3 was analyzed. […]

In the case of `Cc1cc(NC(=O)c2nc3[nH]c4c(c(=O)n3n2)CCC4)c(C)cc1NC(=O)CCOCCC(=O)N[C@H](C(=O)N[C@@H](CC(N)=O)C(=O)N[C@@H](CCC(=O)O)C(=O)N[C@@H](Cc1ccc(O)cc1)C(=O)N[C@@H](Cc1ccc(O)cc1)C(=O)N[C@H](C(=O)O)C(C)C)[C@@H](C)O` [IVMT-Rx-3] (HELM PEPTIDE1{[Cc1cc(NC(=O)c2nc3[nH]c4c(c(=O)n3n2)CCC4)c(C)cc1NC(=O)CCOCCC(=O)[*:2]].T.N.E.Y.Y.V}$$$$V2.0), the “invasion of B16 cells” value [1] is reported as “inhibition of invasion”, the “disruption of MDA-9/Syntenin: Src interactions” value [2] is reported as “disrupted MDA-9/Syntenin: Src interactions” and the “toxicity in pre-clinical animal models” value [3] is reported as “without provoking toxicity”. For the same compound, the “expression of MMP-2 and MMP-9” value [4] was “lower expression of MMP-2 and MMP-9”, the “IL-6, IL-10, IL-16 expression” value [5] was “Down-regulation” and the “MMP-2 and MMP-9 mRNA expression (transcriptional level)” value [6] was “down regulation”. The “T cell infiltration into the tumor environment” value [7] was “causes T cell infiltration into the tumor environment”, the “anti-invasive efficacy in comparison with PDZ1i” value [8] was “significantly enhanced the anti-invasive efficacy in comparison with PDZ1i” and the “binding to Harmonin” value [9] was “did not bind appreciably”. The “effect on MDA-9/Syntenin protein expression” value [10] was “does not affect MDA-9/Syntenin protein expression” and the “IGFBP-2 in tumor-derived media” value [11] was “dose-dependent downregulation”.
